Source: patent publication US20060040901A1, “Derivatives of 1,3-cyclic propandiol phosphate and their action as cell stimulants” (YEDA RESEARCH AND DEVELOPMENT CO. Ltd., priority 2002, published 2006)

Key:
[1] = test system: PC12 cells; test: Induction of neuronal outgrowth / neuronal differentiation in PC-12 cells; assay type: cell-based, rat; settings: for neuronal differentiation / axonal outgrowth: data not shown; for neural outgrowth: 5 μM, after 8 days, microscope, FIG. 2
Description: (§1) In the presence of nerve growth factor these cells differentiate to neuronal cells. PC12 cells originated from rat pheochromocytoma were grown as monolayers in Eagle's medium (EM) supplemented with 10% fetal calf serum, 50 μg/ml gentamicin and 5 mM glutamine, in a humidified incubator buffered with 5% CO2, at 37° C. The culture medium is changed every four days and the cells are passaged every eight days and performed confluent monolayers (1.5×10^6 in a 10 cm plate or 10^5 cells per well in 24 wells plate). PC12 cells are originally round cells which, following several days in the presence of nerve growth factor (NGF) process nerves. Upon withdrawal of the NGF, the nerves retract and a process of apoptosis is initiated in the cells.
PC12 cells were grown in culture as explained above. The cells were divided into two groups and different compounds were added. To the first were added 5 μM 1,3-cyclic propandiol phosphate-5-caproylamido, while as a control to the second portion was added NGF. After a period of 8 days the two groups of PC12 cells were inspected by microscope.

[2] = test system: CHO cells; test: Cell signaling analysis: tyrosine phosphorylation in CHO cells; assay type: cell-based, Chinese Hamster; settings: for intracellular tyrosine phosphorylation: CHO cells, data not shown
Description: CHO cultures were grown as described above for PC12 cells. The cultures were divided into two groups and different compounds were added, followed by a period of incubation of from 1 to 30 minutes. Thus one CHO culture was incubated with 5 μM of 1,3-cyclic propandiol phosphate-2-methylamino at 37° C., the control being a similar CHO culture incubated with 1,3-cyclic glycerphosphate under the same conditions. […] In particular it was detected in a series of proteins with molecular weight of ≈35 kDa, ≈45 kDa, ≈60-70 kDa. as shown in FIG. 1.

[3] = test system: Rat hippocampal neurons; test: Neuronal morphology of cultured hippocampal neurons (stage 3); assay type: cell-based; settings: three days
Description: Rat hippocampal neurons were cultured at low density in defined medium as described previously (Brann et al., 2002, J Bio Chem 277(12): 9812-9818), with slight modifications. Briefly, the dissected hippocampi of embryonic day 18 rats were dissociated by trypsinization (0.25% w/v, for 15 min at 37° C.). The tissue was washed in Mg^2+/Ca^2+-free Hanks' balanced salt solution (Invitrogen) and dissociated by repeated passage through a constricted Pasteur pipette. Cells were plated in minimal essential medium with 10% horse serum at a density of 25,000 cells per 13-mm glass cover slips that had been precoated with poly-L-lysine (1 mg/ml). After 2-4 hr, cover slips were transferred into 24-well plates (Nunc), containing B27 supplemented Neurobasal medium (Brewer, G. et al., 1993, J Neurosci Res 35: 567-576), and cultures were maintained in this defined medium throughout the experiment.
For morphological analysis, cover slips were removed from the 24-well plates on the 3rd day of culture. Neurons were fixed in 1% (v/v) glutaraldehyde in phosphate-buffered-saline for 20 min at 37° C., and mounted for microscopic examination in 50% glycerol in phosphate-buffered-saline. Neurons were examined by phase contrast microscopy using an Achroplan 32x/0.4 n.a. phase 2 objective of a Zeiss Axiovert 35 microscope. Neuronal growth was analyzed based on established developmental criteria of cultured hippocampal neurons (Schwarz et al., 1995, J Bio Chem 270(18): 10990-10998; Brann et al., 1999, J Neurosci 19(19): 8199-8206) as follows: (i) Only neurons at stage 3 were analyzed in this study. […] (iii) Only those cells in which the whole axon plexus could be unambiguously delineated were measured. (iv) The number of axonal branch points per cell were measured. […]
Images of neurons were acquired using NIH image (version 1.62) software. The analyze mode was set to a proportional ratio scale of pixel to μm, the outline of the neuron was copied using the freehand line tool, and the line length measured and analyzed according to the morphological criteria outlined above. […]

[4] = test system: PC12 cells; test: Rescue of PC12 cells from NGF deprivation (nerve rescue); assay type: cell-based, rat; settings: data not shown
Description: as §1
Similar effects were observed (data not shown) for the following compounds. […] 2-Benzyloxy 1,3-chloropropanediol phosphate (Example 16 above) was dissolved in ethanol and from there introduced by 1:1000 dilution into PC12 cultures.

Compound | neuronal differentiation / axonal outgrowth [1] | intracellular tyrosine phosphorylation [2] | also measured
2-caproimido 1,3-chloropropanediol phosphate [Example 17] | neuronal differentiation | induced tyrosine phosphorylation | 
CCCCCC(=O)NC1COP(=O)(O)OC1 (stereo not shown) [Example 4, 1,3-cyclic propandiol phosphate-5-caproylamido] |  |  | neural outgrowth [1]: promoted neural outgrowth
CNC1COP(=O)(O)OC1 (stereo not shown) [Example 7, 1,3-cyclic propandiol phosphate-2-methylamino] |  |  | exposure time after which augmented tyrosine phosphorylation was noticed ([2]; CHO culture, 5 μM, 37° C.): ≤ 1 min; tyrosine phosphorylation of proteins (≈35 kDa, ≈45 kDa, ≈60-70 kDa) ([2]; CHO culture, 5 μM, 37° C., incubation 1 to 30 minutes, control 1,3-cyclic glycerphosphate, FIG. 1): Augmented tyrosine phosphorylation
O=P1(O)OCCCO1 [Example 9, 1,3-cyclic propanediol phosphate] | triggering axonal outgrowth |  | total elongation of axon plexus compared to non-treated cells ([3]; pyramidal rat embryo hippocampal cells, 5 μM, FIG. 3): 32%; increase in length of the longest axon (main axon) compared to non-treated cells ([3]; pyramidal rat embryo hippocampal cells, 5 μM, FIG. 4): about 20%; increase in axonal branch points per cell compared with non-treated cells ([3]; rat embryo hippocampal cells, FIG. 5): about 47%
CC1COP(=O)(O)OC1 (stereo not shown) [Example 10, 2-methyl 1,3-cyclic propanediol phosphate] | triggering axonal outgrowth |  | 
NP1(=O)OCCCO1 [Example 13, 1,3-cyclic propanediol phosphoamidate] | did not induce neuronal differentiation | capable of inducing tyrosine phosphorylation | rescue from NGF deprivation (nerve rescue) [4]: did rescue them from NGF deprivation
CCNP1(=O)OCCCO1 [Example 14, 1,3-cyclic propanediol N-ethyl phosphoamidate] | did not induce neuronal differentiation | promoted tyrosine phosphorylation | 
NGF: nerve growth factor, in whose presence PC12 cells differentiate to neuronal cells |  |  | neural outgrowth [1]: did not exhibit such promotion of neural outgrowth
